Results published in paper PMC8445441, “Elucidating the mechanism by which synthetic helper peptides sensitize Pseudomonas aeruginosa to multiple antibiotics” (PLoS Pathogens, 2021).
Where two headings read alike, the source gives them in different places.

How the values were obtained:
P. aeruginosa AUMC-Pa-3 = test: microbe, parasite or virus in culture; settings: for FICI: antibiotic + D-11 (MICb/MICbc 128/4); for MICac: MIC of the antibiotic in the combination: with D-11 at MICbc 4
Method in brief: (§1)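 Broth microdilution per CLSI in MHB: two-fold drug dilutions mixed with an equal volume of bacterial suspension at approximately 1 × 10^6 CFU/mL, incubated 18 h at 37 °C. MIC was the lowest concentration with no visible growth; triplicate runs.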

P. aeruginosa AUMC-Pa-4 = test: microbe, parasite or virus in culture; settings: strain AUMC-Pa-4; for FICI: antibiotic + D-11 (MICb/MICbc 128/4); for MICa: MIC of the antibiotic: antibiotic alone; for MICa: MIC of the antibiotic / MICac: MIC of the antibiotic in the combination: unit not given; for MICac: MIC of the antibiotic in the combination: with D-11 at MICbc 4
Method in brief: as §1

P. aeruginosa AUMC-Pa-5 = test: microbe, parasite or virus in culture; settings: for FICI: antibiotic + D-11 (MICb/MICbc 64/4); for MICac: MIC of the antibiotic in the combination: with D-11 at MICbc 4
Method in brief: as §1

P. aeruginosa AUMC-Pa-6 = test: microbe, parasite or virus in culture; settings: strain AUMC-Pa-6; for FICI: antibiotic + D-11 (MICb/MICbc 64/4); for MICa: MIC of the antibiotic: antibiotic alone; for MICa: MIC of the antibiotic / MICac: MIC of the antibiotic in the combination: unit not given; for MICac: MIC of the antibiotic in the combination: with D-11 at MICbc 4
Method in brief: as §1

P. aeruginosa PAO1 = test: microbe, parasite or virus in culture; settings: PAO1; for MIC: Pseudomonas aeruginosa, PAO1, 18 h, read-out: MICa: the MIC of antibiotics, S3 Table, antibiotic alone; for FICI / MICac: the MIC for the antibiotic in the combination: S3 Table
Method in brief: as §1

P. aeruginosa ATCC27853 = test: microbe, parasite or virus in culture; design: MICa: MIC of the antibiotic / MICac: MIC of the antibiotic in the combination: unit not given beside the values; settings: strain ATCC27853; for FICI: antibiotic + D-11 (MICb/MICbc 32/4); for MICa: MIC of the antibiotic: antibiotic alone; for MICa: MIC of the antibiotic / MICac: MIC of the antibiotic in the combination: unit not given; for MICac: MIC of the antibiotic in the combination: with D-11 at MICbc 4
Method in brief: as §1

P. aeruginosa NR-31040 = test: microbe, parasite or virus in culture; design: MICa: MIC of the antibiotic / MICac: MIC of the antibiotic in the combination: unit not given beside the values; settings: for FICI: antibiotic + D-11 (MICb/MICbc 128/4); for MICac: MIC of the antibiotic in the combination: with D-11 at MICbc 4
Method in brief: as §1

P. aeruginosa NR-31041 = test: microbe, parasite or virus in culture; design: MICa: MIC of the antibiotic / MICac: MIC of the antibiotic in the combination: unit not given beside the values; settings: strain NR-31041; for FICI: antibiotic + D-11 (MICb/MICbc 64/4); for MICa: MIC of the antibiotic: antibiotic alone; for MICa: MIC of the antibiotic / MICac: MIC of the antibiotic in the combination: unit not given; for MICac: MIC of the antibiotic in the combination: with D-11 at MICbc 4
Method in brief: as §1

P. aeruginosa PA14 = test: microbe, parasite or virus in culture; design: MICa: MIC of the antibiotic / MICac: MIC of the antibiotic in the combination: unit not given beside the values; settings: strain PA14; for FICI: antibiotic + D-11 (MICb/MICbc 128/4); for MICa: MIC of the antibiotic: antibiotic alone; for MICa: MIC of the antibiotic / MICac: MIC of the antibiotic in the combination: unit not given; for MICac: MIC of the antibiotic in the combination: with D-11 at MICbc 4
Method in brief: as §1

P. aeruginosa PAK = test: microbe, parasite or virus in culture; design: MICa: MIC of the antibiotic / MICac: MIC of the antibiotic in the combination: unit not given beside the values; settings: strain PAK; for FICI: antibiotic + D-11 (MICb/MICbc 64/4); for MICa: MIC of the antibiotic: antibiotic alone; for MICa: MIC of the antibiotic / MICac: MIC of the antibiotic in the combination: unit not given; for MICac: MIC of the antibiotic in the combination: with D-11 at MICbc 4
Method in brief: as §1

P. aeruginosa HM-214 = settings: strain HM-214; antibiotic + D-11 (MICb/MICbc 128/4)
Method in brief: as §1

P. aeruginosa AUMC-Pa-1 = settings: strain AUMC-Pa-1; antibiotic + D-11 (MICb/MICbc 128/4)
Method in brief: as §1

P. aeruginosa AUMC-Pa-2 = settings: strain AUMC-Pa-2; antibiotic + D-11 (MICb/MICbc 64/4)
Method in brief: as §1

[1] = system: clinical P. aeruginosa isolates; test: microbe, parasite or virus in culture; settings: Pseudomonas aeruginosa, 18 h, antibiotic alone
Method in brief: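 Broth microdilution per CLSI in MHB, two-fold drug dilutions mixed with an equal volume of bacteria at about 1 × 10^6 CFU/mL. After 18 h at 37 °C, MIC taken as the lowest concentration with no visible growth; run in triplicate.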

[2] = strain AUMC-Pa-3, unit not given
[3] = strain AUMC-Pa-5, unit not given
[4] = strain NR-31040, unit not given
[5] = read-out: Antibiotic sensibility (MIC) of clinical P. aeruginosa isolate AUMC-Pa-1, strain AUMC-Pa-1
[6] = read-out: Antibiotic sensibility (MIC) of clinical P. aeruginosa isolate AUMC-Pa-2, strain AUMC-Pa-2
[7] = read-out: Antibiotic sensibility (MIC) of clinical P. aeruginosa isolate AUMC-Pa-3, strain AUMC-Pa-3
[8] = read-out: Antibiotic sensibility (MIC) of clinical P. aeruginosa isolate AUMC-Pa-4, strain AUMC-Pa-4
[9] = read-out: Antibiotic sensibility (MIC) of clinical P. aeruginosa isolate AUMC-Pa-5, strain AUMC-Pa-5
[10] = read-out: Antibiotic sensibility (MIC) of clinical P. aeruginosa isolate AUMC-Pa-6, strain AUMC-Pa-6
[11] = read-out: Antibiotic sensibility (MIC) of clinical P. aeruginosa isolate HM-214, strain HM-214
[12] = read-out: Antibiotic sensibility (MIC) of clinical P. aeruginosa isolate NR-31040, strain NR-31040
[13] = read-out: Antibiotic sensibility (MIC) of clinical P. aeruginosa isolate NR-31041, strain NR-31041

C[C@@H](O)[C@H]1C(=O)N2C(C(=O)O)=C(S[C@@H]3CN[C@H](C(=O)N(C)C)C3)[C@H](C)[C@H]12 [Meropenem]
MIC (P. aeruginosa AUMC-Pa-3; Pseudomonas aeruginosa, AUMCPA3, 18 h, read-out: MICa: MIC of the antibiotic): 0.25 µM
FICI (P. aeruginosa AUMC-Pa-3; strain AUMC-Pa-3): 1.031
MICac: MIC of the antibiotic in the combination (P. aeruginosa AUMC-Pa-3; [2]): 0.25/0.25
FICI (P. aeruginosa AUMC-Pa-4): 1.031
MICa: MIC of the antibiotic (P. aeruginosa AUMC-Pa-4): 2/2
MICac: MIC of the antibiotic in the combination (P. aeruginosa AUMC-Pa-4): 2/2
MIC (P. aeruginosa AUMC-Pa-5; Pseudomonas aeruginosa, AUMCPA5, 18 h, read-out: MICa: MIC of the antibiotic): 0.25 µM
FICI (P. aeruginosa AUMC-Pa-5; strain AUMC-Pa-5): 2.063
MICac: MIC of the antibiotic in the combination (P. aeruginosa AUMC-Pa-5; [3]): 0.5
FICI (P. aeruginosa AUMC-Pa-6): 2.063
MICa: MIC of the antibiotic (P. aeruginosa AUMC-Pa-6): 2
MICac: MIC of the antibiotic in the combination (P. aeruginosa AUMC-Pa-6): 4
MIC (P. aeruginosa PAO1): 2 µM
FICI (P. aeruginosa PAO1; antibiotic + 4 μM D-11): 0.375
MICac: the MIC for the antibiotic in the combination (P. aeruginosa PAO1; with 2 μM D-11): 1 µM
MICac: the MIC for the antibiotic in the combination (P. aeruginosa PAO1; with 4 μM D-11): 0.5 µM
FICI (P. aeruginosa ATCC27853): 1.125
MICa: MIC of the antibiotic (P. aeruginosa ATCC27853): 1/1
MICac: MIC of the antibiotic in the combination (P. aeruginosa ATCC27853): 1/1
FICI (P. aeruginosa NR-31040; strain NR-31040): 0.531
MICa: MIC of the antibiotic (P. aeruginosa NR-31040; strain NR-31040, antibiotic alone, unit not given): 2
MICac: MIC of the antibiotic in the combination (P. aeruginosa NR-31040; [4]): 1
FICI (P. aeruginosa NR-31041): 0.563
MICa: MIC of the antibiotic (P. aeruginosa NR-31041): 4
MICac: MIC of the antibiotic in the combination (P. aeruginosa NR-31041): 2
FICI (P. aeruginosa PA14): 1.031
MICa: MIC of the antibiotic (P. aeruginosa PA14): 2/2
MICac: MIC of the antibiotic in the combination (P. aeruginosa PA14): 2/2
FICI (P. aeruginosa PAK): 1.063
MICa: MIC of the antibiotic (P. aeruginosa PAK): 1/1
MICac: MIC of the antibiotic in the combination (P. aeruginosa PAK): 1/1
FICI (P. aeruginosa HM-214): 1.031
FICI (P. aeruginosa AUMC-Pa-1): 1.031
FICI (P. aeruginosa AUMC-Pa-2): 2.063
MIC [1, 5]: 1 µM
MIC [1, 6]: 1 µM
MIC [1, 7]: 0.25 µM
MIC [1, 8]: 2 µM
MIC [1, 9]: 0.25 µM
MIC [1, 10]: 2 µM
MIC [1, 11]: 0.25 µM
MIC [1, 12]: 2 µM
MIC [1, 13]: 4 µM

CN(C)c1ccc(O)c2c1C[C@H]1C[C@H]3[C@H](N(C)C)C(O)=C(C(N)=O)C(=O)[C@@]3(O)C(O)=C1C2=O [Minocycline]
FICI (P. aeruginosa AUMC-Pa-3; strain AUMC-Pa-3): 0.156
MICa: MIC of the antibiotic (P. aeruginosa AUMC-Pa-3; strain AUMC-Pa-3, antibiotic alone, unit not given): 16
MICac: MIC of the antibiotic in the combination (P. aeruginosa AUMC-Pa-3; [2]): 2
FICI (P. aeruginosa AUMC-Pa-4): 0.156
MICa: MIC of the antibiotic (P. aeruginosa AUMC-Pa-4): 16
MICac: MIC of the antibiotic in the combination (P. aeruginosa AUMC-Pa-4): 2
FICI (P. aeruginosa AUMC-Pa-5; strain AUMC-Pa-5): 1.063
MICa: MIC of the antibiotic (P. aeruginosa AUMC-Pa-5; strain AUMC-Pa-5, antibiotic alone, unit not given): 16/16
MICac: MIC of the antibiotic in the combination (P. aeruginosa AUMC-Pa-5; [3]): 16/16
FICI (P. aeruginosa AUMC-Pa-6): 0.313
MICa: MIC of the antibiotic (P. aeruginosa AUMC-Pa-6): 16
MICac: MIC of the antibiotic in the combination (P. aeruginosa AUMC-Pa-6): 4
MIC (P. aeruginosa PAO1): 16 µM
FICI (P. aeruginosa PAO1; antibiotic + 2 μM D-11): 0.094
FICI (P. aeruginosa PAO1; antibiotic + 4 μM D-11): 0.141
MICac: the MIC for the antibiotic in the combination (P. aeruginosa PAO1; with 2 μM D-11): 0.5 µM
MICac: the MIC for the antibiotic in the combination (P. aeruginosa PAO1; with 4 μM D-11): 0.25 µM
FICI (P. aeruginosa ATCC27853): 0.188
MICa: MIC of the antibiotic (P. aeruginosa ATCC27853): 16
MICac: MIC of the antibiotic in the combination (P. aeruginosa ATCC27853): 1
MIC (P. aeruginosa NR-31040; Pseudomonas aeruginosa, NR31040, 18 h, read-out: MICa: MIC of the antibiotic): 16 µM
FICI (P. aeruginosa NR-31040; strain NR-31040): 0.063
MICac: MIC of the antibiotic in the combination (P. aeruginosa NR-31040; [4]): 0.5
FICI (P. aeruginosa NR-31041): 0.188
MICa: MIC of the antibiotic (P. aeruginosa NR-31041): 16
MICac: MIC of the antibiotic in the combination (P. aeruginosa NR-31041): 2
FICI (P. aeruginosa PA14): 0.156
MICa: MIC of the antibiotic (P. aeruginosa PA14): 16
MICac: MIC of the antibiotic in the combination (P. aeruginosa PA14): 2
FICI (P. aeruginosa PAK): 0.125
MICa: MIC of the antibiotic (P. aeruginosa PAK): 16
MICac: MIC of the antibiotic in the combination (P. aeruginosa PAK): 1
FICI (P. aeruginosa HM-214): 0.094
FICI (P. aeruginosa AUMC-Pa-1): 0.094
FICI (P. aeruginosa AUMC-Pa-2): 0.313
MIC [1, 5]: 32 µM
MIC [1, 6]: 8 µM
MIC [1, 7]: 16 µM
MIC [1, 8]: 16 µM
MIC [1, 9]: 16 µM
MIC [1, 10]: 16 µM
MIC [1, 11]: 16 µM
MIC [1, 12]: 16 µM
MIC [1, 13]: 16 µM
